# Measurements reported in ChEMBL document CHEMBL1201862, “PubChem BioAssay data set” (2004).
# Activity calls are given as the source filed them. Cut-off read from the data, not from the text of the source, for most assays here: actives have a measured EC50 and inactives only a lower limit.
# System: not listed separately
# Experiment: NIH-3T3 fibroblast cytotoxicity, dose response, cytotoxicity control, cell-based, fluorescence, Alamar Blue, secondary assay (AID 2327);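 note: NIH-3T3 mouse fibroblasts cultured with fluconazole at 8 µg/mL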
# Assay type: functional
# Conditions: not given
row,Structure (SMILES),EC50
1,COc1ccc(-c2cc(C)no2)cc1S(=O)(=O)N(C)c1cccc(C)c1,> 160 µM (inactive)
2,O=C(NNc1ccc(Cl)cc1)c1cccs1,2.56 µM (inconclusive)
3,O=C(CN1CCN(c2ccccc2F)CC1)Nc1nnc(C(F)(F)F)s1,> 150 µM (inactive)
4,O=Nc1c(O)n(Cc2ccc(Cl)c(Cl)c2)c2ccccc12,76.8 µM (active)
5,CC(c1ccccc1)N1CCn2c(nc3cc(NS(C)(=O)=O)ccc32)C1 (stereo not given),> 160 µM (inconclusive)
6,Cc1cc(O)c(/C=N/Nc2ccc(F)cc2)c(=O)o1,9.97 µM (active)

# System: not listed separately
# Experiment: inhibitors of firefly luciferase expression or activity, dose response, H4 neuroglioma cells, luminescence (AID 1990)
# Assay type: functional, cell-based
# Conditions: not given
row,Structure (SMILES),EC50
1,CCNc1nc(Oc2ccc(C#N)cc2)cc(C(F)(F)F)n1,5.99 µM (active)
2,O=C(Nc1ccc(Cl)c(S(=O)(=O)N2CCOCC2)c1)c1ccccc1-c1ccc(C(F)(F)F)cc1,14.5 µM (active)
3,CCOC(=O)C1CCCN(C(=O)CCNC(=O)Cn2ccc3ccccc3c2=O)C1 (stereo not given),> 120 µM (not active)
4,CC(C)(C)n1nc(-c2ccc(F)cc2)c2c(N)ncnc21,8.68 µM (active)
5,CCCCCCc1nnc(N)s1,> 120 µM (not active)
6,N#CCC(=O)N/N=C/c1cn(Cc2cccc3ccccc23)c2ccccc12,14.9 µM (active)
7,COc1ccc(Cc2nnc(Nc3ccc(C)cc3)o2)cc1OC,> 120 µM (not active)

# System: not listed separately
# Experiment: Luminescence Cell-Based Dose Response HTS to Identify Inhibitors of 5'UTR Stem-Loop Driven Prion Protein mRNA Translation in H4 Neuroglioblastoma Cells. [Related pubchem assays: 1827 (Project Summary), 1813 (Primary HTS)]
# Assay type: functional
# Conditions: not given
row,Structure (SMILES),EC50
1,CCNc1nc(Oc2ccc(C#N)cc2)cc(C(F)(F)F)n1,16.8 µM (active)
2,O=C(Nc1ccc(Cl)c(S(=O)(=O)N2CCOCC2)c1)c1ccccc1-c1ccc(C(F)(F)F)cc1,> 120 µM (not active)
3,CCOC(=O)C1CCCN(C(=O)CCNC(=O)Cn2ccc3ccccc3c2=O)C1 (stereo not given),104 µM (active)
4,CCCCCCc1nnc(N)s1,> 120 µM (not active)
5,N#CCC(=O)N/N=C/c1cn(Cc2cccc3ccccc23)c2ccccc12,> 120 µM (not active)
6,COc1ccc(Cc2nnc(Nc3ccc(C)cc3)o2)cc1OC,> 120 µM (not active)

# System: not listed separately
# Experiment: inhibitors of SNCA 5'UTR-driven reporter translation, confirmation, H4 neuroglioma cells, luminescence (AID 1988)
# Assay type: functional, cell-based
# Conditions: not given
row,Structure (SMILES),EC50
1,CCNc1nc(Oc2ccc(C#N)cc2)cc(C(F)(F)F)n1,11.7 µM (active)
2,O=C(Nc1ccc(Cl)c(S(=O)(=O)N2CCOCC2)c1)c1ccccc1-c1ccc(C(F)(F)F)cc1,> 120 µM (not active)
3,CCOC(=O)C1CCCN(C(=O)CCNC(=O)Cn2ccc3ccccc3c2=O)C1 (stereo not given),> 120 µM (not active)
4,CC(C)(C)n1nc(-c2ccc(F)cc2)c2c(N)ncnc21,20 µM (active)
5,CCCCCCc1nnc(N)s1,> 120 µM (not active)
6,N#CCC(=O)N/N=C/c1cn(Cc2cccc3ccccc23)c2ccccc12,8.59 µM (active)
7,COc1ccc(Cc2nnc(Nc3ccc(C)cc3)o2)cc1OC,11.5 µM (active)

# System: not listed separately
# Experiment: C. albicans growth with fluconazole, confirmation, fluorescence, retest (AID 2467)
# Assay type: functional, cell-based
# Conditions: not given
row,Structure (SMILES),EC50
1,COc1ccc(-c2cc(C)no2)cc1S(=O)(=O)N(C)c1cccc(C)c1,> 38 µM (not active)
2,O=C(NNc1ccc(Cl)cc1)c1cccs1,> 38 µM (not active)
3,O=C(CN1CCN(c2ccccc2F)CC1)Nc1nnc(C(F)(F)F)s1,0.366 µM (active)
4,O=Nc1c(O)n(Cc2ccc(Cl)c(Cl)c2)c2ccccc12,3.73 µM (active)
5,CC(c1ccccc1)N1CCn2c(nc3cc(NS(C)(=O)=O)ccc32)C1 (stereo not given),> 38 µM (not active)

# Target: Luciferin 4-monooxygenase (Photinus pyralis, UniProt P08659)
# Sequence (P08659 whole entry): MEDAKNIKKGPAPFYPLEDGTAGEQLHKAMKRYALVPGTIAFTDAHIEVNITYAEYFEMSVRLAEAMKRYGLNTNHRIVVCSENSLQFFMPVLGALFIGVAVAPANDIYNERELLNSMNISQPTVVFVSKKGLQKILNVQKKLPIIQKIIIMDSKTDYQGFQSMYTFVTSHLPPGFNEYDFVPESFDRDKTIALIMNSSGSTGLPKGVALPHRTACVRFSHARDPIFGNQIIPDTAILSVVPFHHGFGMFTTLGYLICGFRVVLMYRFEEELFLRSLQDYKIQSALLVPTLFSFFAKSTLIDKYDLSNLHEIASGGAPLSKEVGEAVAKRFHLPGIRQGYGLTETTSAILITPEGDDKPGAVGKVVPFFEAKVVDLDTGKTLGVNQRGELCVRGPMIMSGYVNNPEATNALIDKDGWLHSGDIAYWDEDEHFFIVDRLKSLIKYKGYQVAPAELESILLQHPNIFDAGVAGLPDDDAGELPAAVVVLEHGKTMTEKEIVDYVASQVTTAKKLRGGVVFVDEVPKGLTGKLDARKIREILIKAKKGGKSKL
# Experiment: firefly luciferase enzyme inhibitors, dose response, biochemical, luminescence (AID 1891)
# Conditions: not given
row,Structure (SMILES),EC50
1,CSc1ccccc1C(=O)Nc1ncc(C)s1,> 112 µM (not active)
2,O=C(CC1(O)C(=O)Nc2ccccc21)c1ccccc1 (stereo not given),> 112 µM (not active)
3,O=C(Nc1cccc(O)c1)C(=O)Nc1ccccn1,7.77 µM (active)
4,Clc1nc2ncnc-2c[nH]1,> 112 µM (not active)
5,Cc1ccc(CNC(=O)C2CCCN(c3nn4c(=O)cc(C)nc4s3)C2)cc1 (stereo not given),> 112 µM (not active)
6,CCOC(=O)C1CCN(C(=O)Cn2nc(C)n3c(cc4cc(F)ccc43)c2=O)CC1,> 112 µM (not active)
7,COC(=O)COc1ccc(S(=O)(=O)NCc2cccnc2)cc1C,> 112 µM (not active)
8,COc1cccc(-c2nc3ccc(O)cc3c(=O)o2)c1,5.39 µM (active)
9,COc1ccccc1NC(=O)Cc1c(F)cccc1Cl,> 112 µM (not active)

# System: not listed separately
# Experiment: Luminescence Cell-Based Dose Confirmation HTS to Identify Inhibitors of Platelet Dense Granule Release. [Related pubchem assays: 1663 (Primary HTS), 1678 (Summary of Project)]
# Assay type: functional
# Conditions: not given
row,Structure (SMILES),EC50
1,CSc1ccccc1C(=O)Nc1ncc(C)s1,65.8 µM (active)
2,O=C(CC1(O)C(=O)Nc2ccccc21)c1ccccc1 (stereo not given),> 112 µM (not active)
3,O=C(Nc1cccc(O)c1)C(=O)Nc1ccccn1,1.82 µM (active)
4,Clc1nc2ncnc-2c[nH]1,> 112 µM (not active)
5,Cc1ccc(CNC(=O)C2CCCN(c3nn4c(=O)cc(C)nc4s3)C2)cc1 (stereo not given),> 112 µM (not active)
6,CCOC(=O)C1CCN(C(=O)Cn2nc(C)n3c(cc4cc(F)ccc43)c2=O)CC1,15.8 µM (active)
7,COC(=O)COc1ccc(S(=O)(=O)NCc2cccnc2)cc1C,34.3 µM (active)
8,COc1cccc(-c2nc3ccc(O)cc3c(=O)o2)c1,9.19 µM (active)
9,COc1ccccc1NC(=O)Cc1c(F)cccc1Cl,70.8 µM (active)

# System: not listed separately
# Experiment: inhibitors of intracellular T. cruzi replication, confirmation, NIH3T3 host cells, beta-gal luminescence (AID 2044);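 note: intracellular parasites grown in NIH/3T3 mouse fibroblasts as host cells; luminescent beta-galactosidase reporter signal from transgenic T. cruzi replicating inside host cells; inhibitors lower the luminescence signal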
# Assay type: functional, cell-based
# Conditions: not given
row,Structure (SMILES),EC50
1,CC(C)(C)n1nc(-c2ccc(F)cc2)c2c(N)ncnc21,0.316 µM (active)

# System: not listed separately
# Experiment: cytotoxicity toward NIH3T3 fibroblasts, dose response, counter-screen, cell-based, ATP luminescence, mouse fibroblasts (AID 2010);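 note: cells exposed to compound for about 90 hours before reading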
# Assay type: functional
# Conditions: not given
row,Structure (SMILES),EC50
1,CC(C)(C)n1nc(-c2ccc(F)cc2)c2c(N)ncnc21,7.86 µM (active)

# System: not listed separately
# Experiment: Luminescence Cell-Based Dose Retest to Confirm Inhibitors of Cancer Stem Cells. [Related pubchem assays (depositor defined):AID2717, AID2721]
# Assay type: functional
# Conditions: Homo sapiens
row,Structure (SMILES),AC50
1,O=C(NNc1ccc(Cl)cc1)c1cccs1,1.14 µM (active)
2,O=Nc1c(O)n(Cc2ccc(Cl)c(Cl)c2)c2ccccc12,5.78 µM (active)

# Target: Cytochrome P450 2D6 (Homo sapiens, UniProt P10635);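 note: CYP2D6 member of a cytochrome P450 panel assay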
# Sequence (P10635 whole entry): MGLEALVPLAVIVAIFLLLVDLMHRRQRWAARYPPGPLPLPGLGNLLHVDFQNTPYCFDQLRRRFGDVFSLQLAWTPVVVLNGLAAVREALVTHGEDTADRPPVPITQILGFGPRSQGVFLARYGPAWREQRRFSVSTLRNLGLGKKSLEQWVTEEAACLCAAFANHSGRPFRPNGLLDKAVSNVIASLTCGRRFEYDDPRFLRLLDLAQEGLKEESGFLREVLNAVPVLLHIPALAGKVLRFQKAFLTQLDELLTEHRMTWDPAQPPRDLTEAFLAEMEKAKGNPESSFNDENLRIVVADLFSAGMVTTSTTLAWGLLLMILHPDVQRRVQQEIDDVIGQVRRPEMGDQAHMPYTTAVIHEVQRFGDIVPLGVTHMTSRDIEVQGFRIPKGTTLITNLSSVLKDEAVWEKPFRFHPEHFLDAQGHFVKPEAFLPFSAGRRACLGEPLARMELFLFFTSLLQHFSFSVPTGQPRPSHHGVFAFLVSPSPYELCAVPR
# Conditions: not given
row,Structure (SMILES),AC50
1,O=Nc1c(O)n(Cc2ccc(Cl)c(Cl)c2)c2ccccc12,28.2 µM (inconclusive)

# Target: T1, Cytochrome P450 1A2 (Homo sapiens, UniProt P05177);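 note: PubChem cytochrome P450 panel assay, CYP1A2 panel member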
# T1 sequence (P05177 whole entry): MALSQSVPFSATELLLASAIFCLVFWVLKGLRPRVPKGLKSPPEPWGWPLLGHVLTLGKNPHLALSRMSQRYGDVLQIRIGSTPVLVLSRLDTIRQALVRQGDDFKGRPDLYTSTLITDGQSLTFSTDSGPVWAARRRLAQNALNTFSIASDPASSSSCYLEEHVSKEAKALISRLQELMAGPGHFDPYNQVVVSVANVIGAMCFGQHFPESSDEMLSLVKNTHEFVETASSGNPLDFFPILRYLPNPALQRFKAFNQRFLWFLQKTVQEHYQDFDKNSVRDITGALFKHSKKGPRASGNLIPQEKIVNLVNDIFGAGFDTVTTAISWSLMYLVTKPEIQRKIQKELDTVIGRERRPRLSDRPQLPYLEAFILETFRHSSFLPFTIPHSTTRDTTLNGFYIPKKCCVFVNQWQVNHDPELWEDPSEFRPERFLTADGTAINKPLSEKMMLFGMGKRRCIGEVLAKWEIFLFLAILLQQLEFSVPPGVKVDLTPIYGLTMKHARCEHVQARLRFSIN
# Conditions: not given
row,Structure (SMILES),AC50
1,O=Nc1c(O)n(Cc2ccc(Cl)c(Cl)c2)c2ccccc12,20 µM (inconclusive)
